Assay results reported in US20210045385A1, “PYRIDAZINONE-SUBSTITUTED KETOXIMES AS HERBICIDES” (FMC Corporation, priority 2018, published 2021).

Tests used:
Format in all cases: in vivo
[1] = test system: rice (Oryza sativa); experiment: Test D flooded paddy test, visual plant response rating; details: 250 g ai/ha, scale 0 to 100 (0 no effect, 100 complete control), 13 to 15 d
Procedure, shortened: (§1)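 Rating is visual, on a 0 (no effect) to 100 (complete control) scale versus controls, taken 13 to 15 d after treatment in a greenhouse. Treatment went into paddy water kept 3 cm above the soil surface, with plants at the 2-leaf stage.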

[2] = test system: sedge umbrella (small-flower umbrella sedge, Cyperus difformis); experiment: as above; details: 250 g ai/ha, scale 0 to 100 (0 no effect, 100 complete control), 13 to 15 d
Procedure, shortened: as §1

[3] = test system: duck salad (Heteranthera limosa); experiment: as above; details: 250 g ai/ha, scale 0 to 100 (0 no effect, 100 complete control), 13 to 15 d
Procedure, shortened: as §1

[4] = test system: barnyardgrass (Echinochloa crus-galli); experiment: as above; details: 250 g ai/ha, scale 0 to 100 (0 no effect, 100 complete control), 13 to 15 d
Procedure, shortened: as §1

[5] = test system: ragweed (common ragweed, Ambrosia artemisiifolia); experiment: Test C postemergence, visual plant response rating
Procedure, shortened: (§2)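 Visual injury on a 0 (no effect) to 100 (complete control) scale versus untreated controls, scored approximately 10 d after treatment under greenhouse conditions. Treatments used surfactant-containing non-phytotoxic solvent formulations, sprayed onto loam–sand soil preemergence or onto one- to two-leaf plants 2–10 cm tall postemergence.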

[6] = test system: pigweed (Amaranthus retroflexus); experiment: Test C postemergence, visual plant response rating
Procedure, shortened: as §2

[7] = test system: galium (catchweed bedstraw, Galium aparine); experiment: Test C postemergence, visual plant response rating
Procedure, shortened: as §2

[8] = test system: Italian ryegrass (Lolium mutiflorum); experiment: Test C postemergence, visual plant response rating
Procedure, shortened: as §2

[9] = test system: blackgrass (Alopecurus myosuroides); experiment: Test C postemergence, visual plant response rating
Procedure, shortened: as §2

[10] = test system: corn (Zea mays); experiment: Test C postemergence, visual plant response rating
Procedure, shortened: as §2

[11] = test system: wheat (Triticum aestivum); experiment: Test C postemergence, visual plant response rating
Procedure, shortened: as §2

[12] = test system: kochia (Bassia scoparia); experiment: Test C postemergence, visual plant response rating
Procedure, shortened: as §2

[13] = test system: barnyardgrass (Echinochloa crus-galli); experiment: Test C postemergence, visual plant response rating
Procedure, shortened: as §2

[14] = test system: foxtail, giant (giant foxtail, Setaria faberi); experiment: Test C postemergence, visual plant response rating
Procedure, shortened: as §2

[15] = test system: ragweed (common ragweed, Ambrosia artemisiifolia); experiment: Test C preemergence, visual plant response rating; details: Test C, 0 is no effect, 100 is complete control
Procedure, shortened: as §2

[16] = test system: pigweed (Amaranthus retroflexus); experiment: Test C preemergence, visual plant response rating; details: Test C, 0 is no effect, 100 is complete control
Procedure, shortened: as §2

[17] = test system: Italian ryegrass (Lolium mutiflorum); experiment: Test C preemergence, visual plant response rating; details: Test C, 0 is no effect, 100 is complete control
Procedure, shortened: as §2

[18] = test system: kochia (Bassia scoparia); experiment: Test C preemergence, visual plant response rating; details: Test C, 0 is no effect, 100 is complete control
Procedure, shortened: as §2

[19] = test system: barnyardgrass (Echinochloa crus-galli); experiment: Test C preemergence, visual plant response rating; details: Test C, 0 is no effect, 100 is complete control
Procedure, shortened: as §2

[20] = test system: foxtail, giant (giant foxtail, Setaria faberi); experiment: Test C preemergence, visual plant response rating; details: Test C, 0 is no effect, 100 is complete control
Procedure, shortened: as §2

[21] = Test C, postemergence, 125 g ai/ha

| SMILES | Plant response rating, Rice (Flood) [1] | Plant response rating, Sedge, Umbrella (Flood) [2] | Plant response rating, Ducksalad (Flood) [3] | Plant response rating, Barnyardgrass (Flood) [4] | Ragweed plant response rating (0 to 100 scale) ([5]; Postemergence, 31 g ai/ha) | Ragweed plant response rating (0 to 100 scale) [5, 21] | Pigweed plant response rating (0 to 100 scale) ([6]; Postemergence, 31 g ai/ha) | Pigweed plant response rating (0 to 100 scale) [6, 21] | Galium plant response rating (0 to 100 scale) ([7]; Postemergence, 31 g ai/ha) | Galium plant response rating (0 to 100 scale) [7, 21] | Ryegrass, Italian plant response rating (0 to 100 scale) ([8]; Postemergence, 31 g ai/ha) | Ryegrass, Italian plant response rating (0 to 100 scale) [8, 21] | Blackgrass plant response rating (0 to 100 scale) ([9]; Postemergence, 31 g ai/ha) | Blackgrass plant response rating (0 to 100 scale) [9, 21] | Corn plant response rating (0 to 100 scale) ([10]; Postemergence, 31 g ai/ha) | Corn plant response rating (0 to 100 scale) [10, 21] | Wheat plant response rating (0 to 100 scale) ([11]; Postemergence, 31 g ai/ha) | Wheat plant response rating (0 to 100 scale) [11, 21] | Kochia plant response rating (0 to 100 scale) ([12]; Postemergence, 31 g ai/ha) | Kochia plant response rating (0 to 100 scale) [12, 21] | also measured |
| --- | --- | --- | --- | --- | --- | --- | --- | --- | --- | --- | --- | --- | --- | --- | --- | --- | --- | --- | --- | --- | --- |
| CO/N=C(/c1c(O)c(C)nn(C)c1=O)c1cccc2cc(Cl)ccc12 [Compound 301] | 0 | 0 | 0 | 0 | 10 | 30 | 50 | 70 | 70 | 90 | 0 | 10 | 0 | 60 | 0 | 20 | 0 | 0 | 0 | 30 | Barnyardgrass plant response rating (0 to 100 scale) ([13]; Postemergence, 31 g ai/ha): 20; Barnyardgrass plant response rating (0 to 100 scale) [13, 21]: 40; Foxtail, Giant plant response rating (0 to 100 scale) ([14]; Postemergence, 31 g ai/ha): 40; Foxtail, Giant plant response rating (0 to 100 scale) [14, 21]: 70; Ragweed plant response rating (0 to 100 scale) ([15]; 31 g ai/ha): 0; Ragweed plant response rating (0 to 100 scale) ([15]; 125 g ai/ha): 0; Pigweed plant response rating (0 to 100 scale) ([16]; 31 g ai/ha): 0; Pigweed plant response rating (0 to 100 scale) ([16]; 125 g ai/ha): 20; Ryegrass, Italian plant response rating (0 to 100 scale) ([17]; 31 g ai/ha): 0; Ryegrass, Italian plant response rating (0 to 100 scale) ([17]; 125 g ai/ha): 30; Kochia plant response rating (0 to 100 scale) ([18]; 31 g ai/ha): 0; Kochia plant response rating (0 to 100 scale) ([18]; 125 g ai/ha): 0; Barnyardgrass plant response rating (0 to 100 scale) ([19]; 31 g ai/ha): 0; Barnyardgrass plant response rating (0 to 100 scale) ([19]; 125 g ai/ha): 40; Foxtail, Giant plant response rating (0 to 100 scale) ([20]; 31 g ai/ha): 20; Foxtail, Giant plant response rating (0 to 100 scale) ([20]; 125 g ai/ha): 80 |
| CC(C)O/N=C(/c1c(O)cnn(C)c1=O)c1ccc(F)c2ccccc12 [Compound 302] | 0 | 0 | 0 | 0 | 0 | 20 | 30 | 60 | 20 | 60 | 0 | 30 | 0 | 0 | 0 | 0 | 0 | 0 | 0 | 20 | Barnyardgrass plant response rating (0 to 100 scale) ([13]; Postemergence, 31 g ai/ha): 0; Barnyardgrass plant response rating (0 to 100 scale) [13, 21]: 0; Foxtail, Giant plant response rating (0 to 100 scale) ([14]; Postemergence, 31 g ai/ha): 10; Foxtail, Giant plant response rating (0 to 100 scale) [14, 21]: 30; Ragweed plant response rating (0 to 100 scale) ([15]; 31 g ai/ha): 0; Ragweed plant response rating (0 to 100 scale) ([15]; 125 g ai/ha): 20; Pigweed plant response rating (0 to 100 scale) ([16]; 31 g ai/ha): 10; Pigweed plant response rating (0 to 100 scale) ([16]; 125 g ai/ha): 40; Ryegrass, Italian plant response rating (0 to 100 scale) ([17]; 31 g ai/ha): 0; Ryegrass, Italian plant response rating (0 to 100 scale) ([17]; 125 g ai/ha): 0; Kochia plant response rating (0 to 100 scale) ([18]; 31 g ai/ha): 0; Kochia plant response rating (0 to 100 scale) ([18]; 125 g ai/ha): 0; Barnyardgrass plant response rating (0 to 100 scale) ([19]; 31 g ai/ha): 0; Barnyardgrass plant response rating (0 to 100 scale) ([19]; 125 g ai/ha): 0; Foxtail, Giant plant response rating (0 to 100 scale) ([20]; 31 g ai/ha): 0; Foxtail, Giant plant response rating (0 to 100 scale) ([20]; 125 g ai/ha): 10 |
